Laboratory results reported in publication PMC8895377, “In Vivo Targeting Replication Protein A for Cancer Therapy” (Frontiers in Oncology, 2022).
In brackets after ≈: the same amount, converted by molar mass. Where two headings read alike, the source gives them in different places.

Tests used:
[1] = Vehicle/excipient solubility screen; format: physicochemical
Experimental: With favorable potency, cellular activity, plasma stability, and a clear deficit in PK, we initiated a series of studies to assess and optimize a formulation of 329 for in vivo bioavailability. Here, 329 solubility was assessed in a series of additives, excipients, and co-solvents to identify initial favorable vehicles ( Table 2 ). […] A series of different formulations were assessed. The final formulation consisted of polysorbate 80, N-methyl-2-pyrrolidone (NMP), propylene glycol, and PEG 400 (+1.1 mol. eq. HCl added as 12 M HCl), and 329 was soluble up to 20 mg/ml, and 10-fold dilution in PBS was well dispersed with minimal precipitation.

[2] = tested on: H460 NSCLC tumor xenografts; experiment: H460 NSCLC xenograft efficacy; format: in vivo, mice; settings: 20 mg/kg IP daily for 5 days, 2 days off, repeated 3 times, optimized formulation
Excerpt: To assess anticancer efficacy, the hind flanks of 60 8–10-week-old Nod SCID gamma (NSG) mice were implanted with the indicated cells (~2 × 10^6) in Matrigel. Tumor volumes were monitored by electronic caliper measurement [tumor volumes = length × (perpendicular width)^2 × 0.5]. NSG studies were approved by the Institutional Animal Care and Use Committee at Indiana University School of Medicine. Male NSG (NOD‐scid/IL2Rg^null) mice (In Vivo Therapeutics Core Facility, IU Simon Comprehensive Cancer Center, Indianapolis, IN, USA) were used and housed in a pathogen‐free facility at IUSM LARC. Mice with tumors of approximately 100 mm^3 were randomized into individual treatment arms. The indicated RPAi was formulated and administered via intraperitoneal injection (IP) at the indicated times. Tumor volumes were monitored biweekly as indicated, and the results are presented as the average tumor volume ± standard error of the mean for each group. […]
Figure 8 In vivo analysis of anticancer activity of 329. (A) Anticancer activity was assessed in human H460 NCSLC tumor xenografts in NOD/SCID mice. Mice were implanted subcutaneously on day 1 with H460 NSCLC cells, tumors were measured by calipers, and mice assigned randomly to treatment arms. […] (C) Tumor weight from A549 cells was determined on day 32. […]

[3] = tested on: 60 cancer cell lines; experiment: Cell viability in 60 cancer cell lines (CellTiter-Glo); format: cell-based; settings: 72 h, most values, read-out: cellular IC50
Experimental: In this study, 90-µl cell suspensions were seeded in 96-well plates in respective culture medium with a final cell density of 4 × 10^3 cells/well and incubated overnight. Here, 10× solution of 329 (top working concentration: 40 µM of test article in media with 3.16-fold serial dilutions to achieve 9 dose levels) was prepared, and 10 µl of drug solution or culture medium containing 0.5% DMSO (vehicle control) was added to the plate (triplicate for each drug concentration). Plates were incubated for 72 h at 37°C with 5% CO2 and then measured by CellTiter-Glo assay (Promega). Briefly, plates were equilibrated at room temperature for 30 min, and 50 µl of CellTiter-Glo reagent was added to each well. Contents were mixed for 5 min on an orbital shaker to induce cell lysis, and plates were further incubated at room temperature for 20 min to stabilize the luminescent signal. Luminescence was recorded using EnVision Multi Plate Reader. Percent cell growth was calculated relative to DMSO-treated cells (vehicle control), and the data were fit using non-linear regression analysis (GraphPad PRISM) to calculate cellular IC50.
Figure 4 Cellular activity of 329 in 60 cancer cell lines. Cell lines were treated with a 4-log range of replication protein A inhibitor (RPAi) 329 for 72 h. Cell viability was assessed using CellTiter-Glo luminescent viability assay. […]

[4] = In vivo toxicity analysis
[5] = target: Escherichia coli single strand binding protein (SSB) (Escherichia coli, UniProt P0AGE0); experiment: EMSA internal specificity control, SSB–ssDNA complex; settings: internal specificity control in EMSA
Experimental: EMSAs were performed as previously described ([9]). Briefly, reactions were conducted in 20 mM HEPES (pH 7.8), 1 mM DTT, 0.001% NP-40, and 50 mM NaCl. RPAis were suspended in 100% dimethlysulfoxide (DMSO), and DMSO concentration in the final reaction mixture was constant at less than 5%. Purified full-length RPA (120 ng) was incubated with the indicated RPAi or vehicle in reaction buffer for 30 min before the addition of the [^32]P-labeled 34-base ssDNA probe. Reactions were incubated for 5 min at room temperature, and products were separated via 6% native polyacrylamide gel electrophoresis. The bound and unbound fractions were quantified by phosphor-imager analysis using ImageQuant software (Molecular Dynamics, CA), and data were fit by non-linear regression using GraphPad Prism.
Figure 2 Replication protein A inhibitor (RPAi) inhibitory activity. (A) Chemical structure of RPAi’s 329 and 2004. (B) EMSA analysis of RPA–DNA interaction inhibition by 329 and 2004. Lanes 3–6 in each panel contain 6.25, 12.5, 25, and 50 µM of the indicated RPAi, respectively. The * indicates the position of the Escherichia coli SSB–single-stranded DNA (ssDNA) complex that serves as an internal specificity control. (C) Cell viability of H460 NSCLC cells in response to 329 and 2004.

Sequence of Escherichia coli single strand binding protein (SSB) (P0AGE0 2-178): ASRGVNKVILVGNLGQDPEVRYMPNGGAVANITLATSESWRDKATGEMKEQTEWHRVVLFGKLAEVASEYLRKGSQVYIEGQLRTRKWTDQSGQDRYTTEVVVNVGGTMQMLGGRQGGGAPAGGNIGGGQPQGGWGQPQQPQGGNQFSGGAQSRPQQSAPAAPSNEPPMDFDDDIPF

Q: Which solubility ([1]; 30% SBECD in water, aqueous with cosolvent or surfactant or cyclodextrin, read-out: Solubility) does the source give for `CCOc1ccc2cc(C3CC(c4ccc(I)cc4)=NN3C(=O)CCCC(=O)NCCCN3CCOCC3)c(Cl)nc2c1` (stereo not shown) [compound 329] here?
A: The solubility was < 1000 µg/mL.

Q: And the solubility ([1]; Cremophor EL, aqueous with cosolvent or surfactant or cyclodextrin, read-out: Solubility)?
A: Its solubility is < 1000 µg/mL.

Q: What about the solubility ([1]; Labrasol, aqueous with cosolvent or surfactant or cyclodextrin, read-out: Solubility) of the same compound?
A: The solubility was 1100 µg/mL (≈ 1530 µM).

Q: And the solubility ([1]; NMP (N-methyl-2-pyrrolidone), organic solvent or mixture, read-out: Solubility)?
A: Its solubility is 70400 µg/mL (≈ 98000 µM).

Q: And the solubility ([1]; aqueous buffer, 50 mM sodium acetate pH 4, read-out: Solubility)?
A: Its solubility is < 1000 µg/mL.

Q: And the solubility ([1]; ethanol, organic solvent or mixture, read-out: Solubility)?
A: Its solubility is < 1000 µg/mL.

Q: And the solubility ([1]; oleic acid, oil or lipid, read-out: Solubility)?
A: Its solubility is 2400 µg/mL (≈ 3340 µM).

Q: What about the solubility ([1]; organic solvent or mixture, polysorbate 80, NMP, propylene glycol, PEG 400 (+1.1 mol. eq. HCl), read-out: solubility in final formulation) of the same compound?
A: The solubility was ≤ 20000 µg/mL.

Q: And the solubility ([1]; polyethylene glycol 400, organic solvent or mixture, read-out: Solubility)?
A: The solubility was 1200 µg/mL (≈ 1670 µM).

Q: What about the solubility ([1]; polysorbate 80, aqueous with cosolvent or surfactant or cyclodextrin, Polysorbate 8O, read-out: Solubility) of the same compound?
A: The solubility was < 1000 µg/mL.

Q: And the solubility ([1]; propylene glycol, organic solvent or mixture, read-out: Solubility)?
A: The solubility was 1300 µg/mL (≈ 1810 µM).

Q: And the solubility ([1]; water, read-out: Solubility)?
A: Its solubility is < 1000 µg/mL.

Q: What about the tumor volume [2] of the same compound?
A: The tumor volume was “a decrease in tumor volume was observed starting at day 17”.

Q: What about the IC50 [3] of the same compound?
A: The IC50 was 5 to 10 µM.

Q: And the toxicity ([4]; 200 mg/kg in the new formulation)?
A: Its toxicity is “increased toxicity”.

Q: And the kidney function ([4]; DMSO/Tween formulation, data not shown)?
A: Its kidney function is “no differences from vehicle controls”.

Q: And the toxicity ([4]; dosing up to 200 mg/kg, suspension in DMSO/Tween)?
A: Its toxicity is “no overt toxicity”.

Q: What about the body weight ([4]; up to 200 mg/kg, suspension in DMSO/Tween) of the same compound?
A: The body weight was “no significant loss in body weight”.

Q: And the “interaction of E. coli SSB with ssDNA” value [5]?
A: The value was “not impacted”.
